Active and inactive are the calls of the source. The calls are words filed in the database; no cut-off is given here.
Experiments:
BaF3 [1] = assay: Induction of cell cycle arrest in mouse BaF3 cells transfected with TPR-MET genes assessed as cells accumulation at G1 phase at 0.2 uM by fluorescence-activated cell sorter analysis (reference value: 42.4%); assay type: functional
BaF3 [2] = assay: Inhibition of cell growth in mouse BaF3 cells in presence of interleukin 3 at 1 uM measured after 3 days by 3-(4,5-dimethylthiazol-2-yl)-2,5-diphenyltetrazolium bromide assay; assay type: functional, cell-based; conditions: time 3.0 day
[3] = biological target: Hepatocyte growth factor receptor (Mus musculus) (UniProt P16056); assay: Inhibition of Met autophosphorylation at Tyr361/365/366 in mouse BaF3 cells at 5 uM by immunoblotting analysis; assay type: cell-based
Sequence of Hepatocyte growth factor receptor (Mus musculus) (P16056 whole entry, the tested form may be a part): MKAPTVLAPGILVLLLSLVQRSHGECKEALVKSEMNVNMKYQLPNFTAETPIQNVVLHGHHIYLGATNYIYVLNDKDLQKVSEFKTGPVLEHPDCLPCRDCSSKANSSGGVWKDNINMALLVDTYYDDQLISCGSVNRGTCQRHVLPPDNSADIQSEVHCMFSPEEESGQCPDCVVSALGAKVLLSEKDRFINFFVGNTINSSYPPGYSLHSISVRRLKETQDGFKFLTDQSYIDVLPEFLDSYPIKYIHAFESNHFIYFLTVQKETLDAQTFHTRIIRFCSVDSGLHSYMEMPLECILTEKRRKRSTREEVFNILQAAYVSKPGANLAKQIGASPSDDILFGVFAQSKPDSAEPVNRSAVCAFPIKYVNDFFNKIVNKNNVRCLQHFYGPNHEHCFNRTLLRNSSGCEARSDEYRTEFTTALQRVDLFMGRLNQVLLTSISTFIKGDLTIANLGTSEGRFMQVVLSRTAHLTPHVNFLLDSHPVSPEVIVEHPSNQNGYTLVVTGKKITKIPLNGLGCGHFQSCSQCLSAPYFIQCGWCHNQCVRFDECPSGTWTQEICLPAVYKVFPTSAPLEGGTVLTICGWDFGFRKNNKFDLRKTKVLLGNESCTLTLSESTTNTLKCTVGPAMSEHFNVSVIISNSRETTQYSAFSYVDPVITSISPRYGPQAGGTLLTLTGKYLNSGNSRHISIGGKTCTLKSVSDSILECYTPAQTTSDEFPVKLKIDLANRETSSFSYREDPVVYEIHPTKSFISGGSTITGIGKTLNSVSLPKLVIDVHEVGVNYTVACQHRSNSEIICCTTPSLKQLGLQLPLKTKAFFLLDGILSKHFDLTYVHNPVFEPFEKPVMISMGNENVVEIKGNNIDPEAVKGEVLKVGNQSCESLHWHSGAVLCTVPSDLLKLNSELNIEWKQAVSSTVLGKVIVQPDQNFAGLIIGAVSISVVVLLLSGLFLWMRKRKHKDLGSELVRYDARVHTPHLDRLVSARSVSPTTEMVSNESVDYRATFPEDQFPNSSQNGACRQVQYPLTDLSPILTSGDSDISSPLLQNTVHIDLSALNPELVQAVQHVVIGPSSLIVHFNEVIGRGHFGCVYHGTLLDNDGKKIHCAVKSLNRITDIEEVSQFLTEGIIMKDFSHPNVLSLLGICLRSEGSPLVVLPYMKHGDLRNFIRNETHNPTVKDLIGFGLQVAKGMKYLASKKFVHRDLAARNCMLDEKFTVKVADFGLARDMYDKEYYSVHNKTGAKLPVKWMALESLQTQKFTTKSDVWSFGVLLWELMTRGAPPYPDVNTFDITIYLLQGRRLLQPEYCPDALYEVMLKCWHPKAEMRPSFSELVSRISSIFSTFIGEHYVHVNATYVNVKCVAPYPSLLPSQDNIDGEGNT

NCI-H69 = assay: Growth inhibition of human NCI-H69 cells in presence of HGF measured after 72 hrs by 3-(4,5 dimethylthiazol-2-yl)-2,5-diphenyltetrazolium bromide assay; assay type: functional, cell-based
[4] = biological target: Hepatocyte growth factor receptor (Mus musculus) (UniProt P16056); assay: Inhibition of Met autophosphorylation at Tyr480 in mouse BaF3 cells at 5 uM by immunoblotting analysis; assay type: cell-based
[5] = biological target: Vascular endothelial growth factor receptor 2 (Homo sapiens, UniProt P35968); assay: Inhibition of glutathione S-transferase fused Flk1 (unknown origin) catalytic activity infected in Sf9 cells using poly-Glu-Tyr (4:1) as substrate
Sequence of Vascular endothelial growth factor receptor 2 (P35968 whole entry, the tested form may be a part): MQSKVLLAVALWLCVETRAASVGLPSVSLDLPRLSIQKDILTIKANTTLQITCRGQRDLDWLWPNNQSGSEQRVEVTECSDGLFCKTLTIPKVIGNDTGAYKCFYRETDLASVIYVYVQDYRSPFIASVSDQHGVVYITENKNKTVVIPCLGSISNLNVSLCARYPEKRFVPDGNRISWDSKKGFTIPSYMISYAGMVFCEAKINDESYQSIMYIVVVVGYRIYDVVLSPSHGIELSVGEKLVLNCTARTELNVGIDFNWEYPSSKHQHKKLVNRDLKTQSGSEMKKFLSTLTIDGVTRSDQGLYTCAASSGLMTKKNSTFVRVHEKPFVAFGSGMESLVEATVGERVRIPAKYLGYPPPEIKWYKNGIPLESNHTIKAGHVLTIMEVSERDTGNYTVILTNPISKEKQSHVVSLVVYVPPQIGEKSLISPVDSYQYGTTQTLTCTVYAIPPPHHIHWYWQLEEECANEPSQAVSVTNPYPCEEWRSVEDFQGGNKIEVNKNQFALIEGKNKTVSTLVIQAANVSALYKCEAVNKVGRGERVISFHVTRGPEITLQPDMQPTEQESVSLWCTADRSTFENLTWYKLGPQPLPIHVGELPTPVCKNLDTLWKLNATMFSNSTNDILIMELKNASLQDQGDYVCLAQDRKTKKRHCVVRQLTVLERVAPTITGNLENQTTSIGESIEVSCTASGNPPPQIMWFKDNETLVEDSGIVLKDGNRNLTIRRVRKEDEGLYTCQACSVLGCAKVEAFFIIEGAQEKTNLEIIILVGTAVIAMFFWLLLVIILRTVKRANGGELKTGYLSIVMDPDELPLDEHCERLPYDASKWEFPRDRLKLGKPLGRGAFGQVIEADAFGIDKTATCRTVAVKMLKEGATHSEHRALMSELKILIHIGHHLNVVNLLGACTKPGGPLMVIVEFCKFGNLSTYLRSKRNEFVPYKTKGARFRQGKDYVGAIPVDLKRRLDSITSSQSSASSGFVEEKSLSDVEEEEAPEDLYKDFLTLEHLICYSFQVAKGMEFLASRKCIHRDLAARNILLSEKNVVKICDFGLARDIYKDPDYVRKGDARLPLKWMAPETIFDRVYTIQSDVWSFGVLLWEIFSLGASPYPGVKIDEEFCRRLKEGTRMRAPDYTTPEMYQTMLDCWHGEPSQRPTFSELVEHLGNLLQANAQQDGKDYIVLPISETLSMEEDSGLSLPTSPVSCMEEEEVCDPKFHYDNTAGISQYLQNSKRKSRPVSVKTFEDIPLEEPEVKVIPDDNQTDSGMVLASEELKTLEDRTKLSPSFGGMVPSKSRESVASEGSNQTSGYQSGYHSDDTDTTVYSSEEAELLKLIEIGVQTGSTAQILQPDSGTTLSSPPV

BaF3 [6] = assay: Induction of cell cycle arrest in mouse BaF3 cells transfected with TPR-MET genes assessed as cells accumulation at S phase at 0.2 uM by fluorescence-activated cell sorter analysis (reference value: 45.4%); assay type: functional
BaF3 [7] = assay: Induction of apoptosis in mouse BaF3 cells transfected with TPR-MET genes assessed as late apoptotic cells at 1 uM measured after 18 hrs by annexin V and propidium iodide staining based flow cytometry assay (reference value: 3.8%); assay type: functional
[8] = biological target: Cyclin-dependent kinase 2 (Homo sapiens, UniProt P24941); assay: Inhibition of glutathione S-transferase fused CDK2 (unknown origin) catalytic activity infected in Sf9 cells using poly-Glu-Tyr (4:1) as substrate
BaF3 [9] = assay: Induction of apoptosis in mouse BaF3 cells transfected with TPR-MET genes assessed as necrotic cells at 1 uM measured after 18 hrs by annexin V and propidium iodide staining based flow cytometry assay (reference value: 0.1%); assay type: functional
BaF3 [10] = assay: Induction of cell cycle arrest in mouse BaF3 cells transfected with TPR-MET genes assessed as cells accumulation at G2/M phase at 5 uM by fluorescence-activated cell sorter analysis (reference value: 12.2%); assay type: functional
BaF3 [11] = assay: Inhibition of Serine phosphorylation of AKT at Ser473 in mouse BaF3 cells transfected with TPR-MET genes at 0.2 to 5 uM by immunoblotting analysis; assay type: cell-based; conditions: dose 0.2-5 µM
BaF3 [12] = assay: Inhibition of cell growth in mouse BaF3 cells transfected with TPR-MET genes in presence of interleukin 3 at 1 uM by 3-(4,5-dimethylthiazol-2-yl)-2,5-diphenyltetrazolium bromide assay; assay type: functional, cell-based
NCI-H345 = assay: Growth inhibition of human NCI-H345 cells in presence of HGF measured after 72 hrs by 3-(4,5 dimethylthiazol-2-yl)-2,5-diphenyltetrazolium bromide assay; assay type: functional, cell-based
BaF3 [13] = assay: Inhibition of cell growth in mouse BaF3 cells transfected with BCR-ABL genes in presence of interleukin 3 at 1 uM measured after 3 days by 3-(4,5-dimethylthiazol-2-yl)-2,5-diphenyltetrazolium bromide assay; assay type: functional, cell-based; conditions: time 3.0 day
BaF3 [14] = assay: Inhibition of cell growth in mouse BaF3 cells transfected with BCR-ABL genes at 1 uM measured after 18 hrs by 3-(4,5-dimethylthiazol-2-yl)-2,5-diphenyltetrazolium bromide assay; assay type: functional, cell-based
BaF3 [15] = assay: Inhibition of cell growth in mouse BaF3 cells transfected with TPR-MET genes at 0.01 to 10 uM by 3-(4,5-dimethylthiazol-2-yl)-2,5-diphenyltetrazolium bromide assay; assay type: functional, cell-based; conditions: dose 0.01-10 µM
[16] = biological target: Platelet-derived growth factor receptor beta (Homo sapiens, UniProt P09619); assay: Inhibition of glutathione S-transferase fused PDGFbetaR (unknown origin) catalytic activity infected in Sf9 cells using poly-Glu-Tyr (4:1) as substrate
BaF3 [17] = assay: Inhibition of cell growth in mouse BaF3 cells transfected with BCR-ABL genes in presence of interleukin 3 at 1 uM measured after 18 hrs by 3-(4,5-dimethylthiazol-2-yl)-2,5-diphenyltetrazolium bromide assay; assay type: functional, cell-based
BaF3 [18] = assay: Induction of apoptosis in mouse BaF3 cells transfected with TPR-MET genes assessed as viable cells at 1 uM measured after 18 hrs by annexin V and propidium iodide staining based flow cytometry assay (reference value: 93.6%); assay type: functional; conditions: read-out: Activity
BaF3 [19] = assay: Induction of cell cycle arrest in mouse BaF3 cells transfected with TPR-MET genes assessed as cells accumulation at G2/M phase at 0.2 uM by fluorescence-activated cell sorter analysis (reference value: 12.2%); assay type: functional
[20] = biological target: T1, Hepatocyte growth factor receptor (Homo sapiens, UniProt P08581); assay: Inhibition of glutathione S-transferase fused Met (unknown origin) catalytic activity infected in Sf9 cells using poly-Glu-Tyr (4:1) as substrate
T1 sequence (P08581 whole entry, the tested form may be a part): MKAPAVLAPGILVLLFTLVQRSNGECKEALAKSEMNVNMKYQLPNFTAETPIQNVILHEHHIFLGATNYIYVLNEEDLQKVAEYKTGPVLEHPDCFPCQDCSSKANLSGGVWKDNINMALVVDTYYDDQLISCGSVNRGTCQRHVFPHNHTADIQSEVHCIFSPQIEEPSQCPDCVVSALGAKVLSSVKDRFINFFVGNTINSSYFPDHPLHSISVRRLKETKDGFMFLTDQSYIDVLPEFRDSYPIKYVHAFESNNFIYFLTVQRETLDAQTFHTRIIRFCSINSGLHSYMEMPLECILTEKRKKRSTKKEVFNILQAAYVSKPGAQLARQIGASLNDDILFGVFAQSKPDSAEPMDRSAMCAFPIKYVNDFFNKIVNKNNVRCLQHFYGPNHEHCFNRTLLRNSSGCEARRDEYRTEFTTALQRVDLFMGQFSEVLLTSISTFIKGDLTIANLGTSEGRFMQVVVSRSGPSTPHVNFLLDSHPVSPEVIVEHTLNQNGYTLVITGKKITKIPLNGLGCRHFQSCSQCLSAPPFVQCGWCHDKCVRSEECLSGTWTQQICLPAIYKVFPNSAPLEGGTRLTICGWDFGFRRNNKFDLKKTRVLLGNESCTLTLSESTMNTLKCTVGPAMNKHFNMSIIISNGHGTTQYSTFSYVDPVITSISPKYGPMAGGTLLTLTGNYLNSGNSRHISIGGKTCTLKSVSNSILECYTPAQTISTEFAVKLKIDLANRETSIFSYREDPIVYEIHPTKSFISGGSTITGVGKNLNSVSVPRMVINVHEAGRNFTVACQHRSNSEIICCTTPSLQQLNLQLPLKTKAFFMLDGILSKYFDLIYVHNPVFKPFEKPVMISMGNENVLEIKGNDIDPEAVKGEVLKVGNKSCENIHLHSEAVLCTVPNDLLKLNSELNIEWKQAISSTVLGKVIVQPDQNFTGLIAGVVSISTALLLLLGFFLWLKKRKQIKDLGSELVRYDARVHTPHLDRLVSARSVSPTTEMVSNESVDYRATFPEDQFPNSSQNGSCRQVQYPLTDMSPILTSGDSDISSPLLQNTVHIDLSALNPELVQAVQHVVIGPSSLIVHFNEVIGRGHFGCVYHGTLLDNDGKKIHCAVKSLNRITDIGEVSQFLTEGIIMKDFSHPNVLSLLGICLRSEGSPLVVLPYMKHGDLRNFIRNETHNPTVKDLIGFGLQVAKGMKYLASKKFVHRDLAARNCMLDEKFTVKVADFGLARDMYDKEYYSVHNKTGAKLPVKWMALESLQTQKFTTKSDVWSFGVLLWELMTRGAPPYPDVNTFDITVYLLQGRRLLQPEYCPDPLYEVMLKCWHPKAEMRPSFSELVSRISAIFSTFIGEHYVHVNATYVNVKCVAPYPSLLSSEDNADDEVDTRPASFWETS

BaF3 [21] = assay: Induction of cell cycle arrest in mouse BaF3 cells transfected with TPR-MET genes assessed as cells accumulation at G2/M phase at 1 uM by fluorescence-activated cell sorter analysis (reference value: 12.2%); assay type: functional
BaF3 [22] = assay: Induction of apoptosis in mouse BaF3 cells transfected with TPR-MET genes assessed as total apoptotic cells at 1 uM measured after 18 hrs by annexin V and propidium iodide staining based flow cytometry assay (reference value: 5%); assay type: functional
BaF3 [23] = assay: Induction of apoptosis in mouse BaF3 cells transfected with TPR-MET genes assessed as early apoptotic cells at 1 uM measured after 18 hrs by annexin V and propidium iodide staining based flow cytometry assay (reference value: 2.5%); assay type: functional
BaF3 [24] = assay: Inhibition of […] phosphorylation of AKT at […] in mouse BaF3 cells transfected with TPR-MET genes at 0.2 to 5 uM by immunoblotting analysis; assay type: cell-based; conditions: dose 0.2-5 µM
BaF3 [25] = assay: Inhibition of cell growth in mouse BaF3 cells transfected with TPR-MET genes at 1 uM measured after 3 days by 3-(4,5-dimethylthiazol-2-yl)-2,5-diphenyltetrazolium bromide assay; assay type: functional; conditions: BaF3, 72 h, time 3 day
[26] = biological target: T2, Fibroblast growth factor receptor 1 (Homo sapiens, UniProt P11362); assay: Inhibition of glutathione S-transferase fused FGFR1 (unknown origin) catalytic activity infected in Sf9 cells using poly-Glu-Tyr (4:1) as substrate
Target sequence in this assay (P11362 whole entry, the tested form may be a part): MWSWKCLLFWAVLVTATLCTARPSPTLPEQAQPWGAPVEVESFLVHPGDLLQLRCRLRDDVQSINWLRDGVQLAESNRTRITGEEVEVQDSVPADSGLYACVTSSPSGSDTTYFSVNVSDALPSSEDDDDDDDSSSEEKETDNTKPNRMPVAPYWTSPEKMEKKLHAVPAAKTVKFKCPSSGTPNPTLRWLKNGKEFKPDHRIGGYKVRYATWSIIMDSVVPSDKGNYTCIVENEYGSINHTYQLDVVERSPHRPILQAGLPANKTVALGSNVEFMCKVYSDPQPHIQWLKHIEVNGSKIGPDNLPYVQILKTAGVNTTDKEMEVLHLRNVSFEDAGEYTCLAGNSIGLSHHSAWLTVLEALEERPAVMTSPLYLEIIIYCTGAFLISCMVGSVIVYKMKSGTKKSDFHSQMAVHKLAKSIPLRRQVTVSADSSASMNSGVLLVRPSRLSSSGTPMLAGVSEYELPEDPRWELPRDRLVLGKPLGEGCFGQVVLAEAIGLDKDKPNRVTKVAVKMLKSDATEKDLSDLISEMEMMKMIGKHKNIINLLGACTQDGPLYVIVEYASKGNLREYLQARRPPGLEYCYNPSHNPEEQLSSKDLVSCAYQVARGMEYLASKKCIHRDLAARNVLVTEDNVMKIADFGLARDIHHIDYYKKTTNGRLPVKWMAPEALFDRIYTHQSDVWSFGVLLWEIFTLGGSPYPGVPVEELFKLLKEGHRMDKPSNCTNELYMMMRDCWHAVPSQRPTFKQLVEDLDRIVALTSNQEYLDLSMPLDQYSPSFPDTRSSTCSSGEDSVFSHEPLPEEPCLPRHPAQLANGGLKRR

BaF3 [27] = assay: Induction of cell cycle arrest in mouse BaF3 cells transfected with TPR-MET genes assessed as cells accumulation at G1 phase at 5 uM by fluorescence-activated cell sorter analysis (reference value: 42.4%); assay type: functional
BaF3 [28] = assay: Inhibition of migration of mouse BaF3 cells at 1 uM measured after 4 hrs by spontaneous transwell migration assay relative to control; assay type: functional
BaF3 [29] = assay: Inhibition of migration of mouse BaF3 cells measured after 4 hrs by spontaneous transwell migration assay; assay type: functional, cell-based; conditions: dose 0.2-5 µM
BaF3 [30] = assay: Induction of cell cycle arrest in mouse BaF3 cells transfected with TPR-MET genes assessed as cells accumulation at S phase at 5 uM by fluorescence-activated cell sorter analysis (reference value: 45.4%); assay type: functional
BaF3 [31] = assay: Inhibition of Serine phosphorylation of FKHR at Ser256 in mouse BaF3 cells transfected with TPR-MET genes at 0.2 to 5 uM by immunoblotting analysis; assay type: cell-based; conditions: dose 0.2-5 µM
BaF3 [32] = assay: Inhibition of cell growth in mouse BaF3 cells transfected with TEL-PDGFbetaR genes at 1 uM measured after 18 hrs by 3-(4,5-dimethylthiazol-2-yl)-2,5-diphenyltetrazolium bromide assay; assay type: functional, cell-based
BaF3 [33] = assay: Inhibition of migration of mouse BaF3 cells at 5 uM measured after 4 hrs by spontaneous transwell migration assay relative to control; assay type: functional
[34] = biological target: Epidermal growth factor receptor (Homo sapiens, UniProt P00533); assay: Inhibition of glutathione S-transferase fused EGFR (unknown origin) catalytic activity infected in Sf9 cells using poly-Glu-Tyr (4:1) as substrate
BaF3 [35] = assay: Induction of cell cycle arrest in mouse BaF3 cells transfected with TPR-MET genes assessed as cells accumulation at G1 phase at 1 uM by fluorescence-activated cell sorter analysis (reference value: 42.4%); assay type: functional
[36] = biological target: T1, Hepatocyte growth factor receptor; assay: Inhibition of HGF-dependent Met (unknown origin) phosphorylation
BaF3 [37] = assay: Inhibition of Serine phosphorylation of GSK3beta at Ser21/9 in mouse BaF3 cells transfected with TPR-MET genes at 0.2 to 5 uM by immunoblotting analysis; assay type: cell-based; conditions: dose 0.2-5 µM
BaF3 [38] = assay: Inhibition of cell growth in mouse BaF3 cells transfected with TEL-JAK2 genes at 1 uM measured after 18 hrs by 3-(4,5-dimethylthiazol-2-yl)-2,5-diphenyltetrazolium bromide assay; assay type: functional, cell-based
BaF3 [39] = assay: Inhibition of cell growth in mouse BaF3 cells transfected with TPR-MET genes by 3-(4,5-dimethylthiazol-2-yl)-2,5-diphenyltetrazolium bromide assay; assay type: functional, cell-based
BaF3 [40] = assay: Inhibition of cell growth in mouse BaF3 cells transfected with TEL-ABL genes at 1 uM measured after 18 hrs by 3-(4,5-dimethylthiazol-2-yl)-2,5-diphenyltetrazolium bromide assay; assay type: functional, cell-based
BaF3 [41] = assay: Inhibition of cell growth in mouse BaF3 cells transfected with TPR-MET genes in presence of interleukin 3 at 1 uM measured after 3 days by 3-(4,5-dimethylthiazol-2-yl)-2,5-diphenyltetrazolium bromide assay; assay type: functional, cell-based; conditions: time 3.0 day
[42] = biological target: Proto-oncogene tyrosine-protein kinase Src (Homo sapiens, UniProt P12931); assay: Inhibition of glutathione S-transferase fused c-Src (unknown origin) catalytic activity infected in Sf9 cells using poly-Glu-Tyr (4:1) as substrate
[43] = biological target: Hepatocyte growth factor receptor (Mus musculus) (UniProt P16056); assay: Inhibition of Met autophosphorylation at Tyr496 in mouse BaF3 cells at 5 uM by immunoblotting analysis; assay type: cell-based
Angiopoietin-1 receptor = Angiopoietin-1 receptor (Homo sapiens, UniProt Q02763); assay: Inhibition of glutathione S-transferase fused Tie2 (unknown origin) catalytic activity infected in Sf9 cells using poly-Glu-Tyr (4:1) as substrate
BaF3 [44] = assay: Reduction in tyrosine phosphorylation of cellular proteins in mouse BaF3 cells transfected with TPR-MET genes by immunoblotting analysis; assay type: functional, cell-based; conditions: dose 0.2-5 µM
[45] = biological target: T2, Fibroblast growth factor receptor 1; assay: Inhibition of glutathione S-transferase fused FGFR1 (unknown origin) catalytic activity infected in Sf9 cells using poly-Glu-Tyr (4:1) as substrate at 0.02 uM relative to control
BaF3 [46] = assay: Induction of cell cycle arrest in mouse BaF3 cells transfected with TPR-MET genes assessed as cells accumulation at S phase at 1 uM by fluorescence-activated cell sorter analysis (reference value: 45.4%); assay type: functional

Cc1[nH]c(/C=C2/C(=O)Nc3ccc(S(=O)(=O)N(C)c4cccc(Cl)c4)cc32)c(C)c1C(=O)N1CCN(C)CC1
Activity (BaF3 [1]): 46.6%
inhibition (BaF3 [2]): inactive
inhibition [3]: Active
inhibition (NCI-H69): Dose-Dependent Effect
inhibition [4]: Active
IC50 [5]: 1.3 µM
Activity (BaF3 [6]): 40%
Activity (BaF3 [7]): 17.2%
IC50 [8]: > 10 µM
Activity (BaF3 [9]): 1.1%
Activity (BaF3 [10]): 8.3%
inhibition (BaF3 [11]): Active
inhibition (BaF3 [12]): Active
inhibition (NCI-H345): Dose-Dependent Effect
inhibition (BaF3 [13]): inactive
inhibition (BaF3 [14]): inactive
inhibition (BaF3 [15]): Dose-Dependent Effect
IC50 [16]: > 20 µM
inhibition (BaF3 [17]): inactive
viability at 1 µM (BaF3 [18]): 70.3%
Activity (BaF3 [19]): 13.4%
IC50 [20]: 0.02 µM
Activity (BaF3 [21]): 6%
Activity (BaF3 [22]): 24%
Activity (BaF3 [23]): 11.3%
inhibition (BaF3 [24]): Active
inhibition at 1 µM (BaF3 [25]): 100%
IC50 [26]: 9.7 µM
Activity (BaF3 [27]): 13.4%
inhibition at 1 µM (BaF3 [28]): 44.8%
inhibition (BaF3 [29]): Dose-Dependent Effect
Activity (BaF3 [30]): 21.1%
inhibition (BaF3 [31]): Active
inhibition (BaF3 [32]): inactive
inhibition at 5 µM (BaF3 [33]): 80%
IC50 [34]: > 100 µM
Activity (BaF3 [35]): 40%
IC50 [36]: 1 µM
inhibition (BaF3 [37]): Active
inhibition (BaF3 [38]): inactive
IC50 (BaF3 [39]): < 3 µM
inhibition (BaF3 [40]): inactive
inhibition (BaF3 [41]): inactive
IC50 [42]: > 10 µM
inhibition [43]: Active
IC50 (Angiopoietin-1 receptor): > 100 µM
inhibition (BaF3 [44]): Dose-Dependent Effect
inhibition [45]: 2%
Activity (BaF3 [46]): 29.8%

From ChEMBL document CHEMBL5653596, “A novel small molecule met inhibitor induces apoptosis in cells transformed by the oncogenic TPR-MET tyrosine kinase” (Cancer Res, 2003)
